Measurements reported in patent publication EP0917465B1, “ANTIMALARIAL AND ANTI-BABESIOSIS AGENTS AND PHARMACEUTICAL COMPOSITIONS CONTAINING THE SAME AGENTS” (priority 1996, dated 1998).
Like-named read-outs stand apart in the source and are kept apart here.

Columns and labels:
[1] = tested on: Plasmodium falciparum; experiment: In vitro antimalarial activity, (3H) hypoxanthine incorporation in infected human erythrocytes (Desjardins test); type: cell-based; settings: read-out: IC50 exprimée en micromoles
Text: L'activité antipaludéenne des dérivés selon les exemples précédents est testée sur l'humain infesté par Plasmodium falciparum. Le produit à tester est mis en contact avec les érythrocytes humains infectés pendant 24 heures. Un précurseur radioactif d'acides nucléiques l'Hypoxanthine (^3H) est ensuite ajouté. Le précurseur ne s'incorpore que dans les cellules infectées par un parasite en croissance, c'est à dire dans les cellules que la drogue n'aura pas affectées.
L'aptitude ou non à incorporer le précurseur reflète donc la viabilité des cellules impaludées. La durée des tests est de 60 à 70 heures ( test de DESJARDINS R.E. , CANFIELD C.J., HATNES J.D. et CHULAY J.D., Antimicrob. Agents Chemother. 1979, 16, p 710-718 ). Les résultats sont consignés dans le tableau I ci-après, sous forme de IC50 (ou DE50), soit la concentration de produit dans le milieu expérimental capable d'inhiber in vitro la croissance du parasite d'une valeur de 50%.

[2] = tested on: Babesia Bovis, Babesia Canis; experiment: In vitro anti-Babesia activity, (3H) hypoxanthine incorporation; type: cell-based; settings: read-out: Activité/ Babesia à 10 millimole
Text: Le procédé de criblage d'activité anti-malaria, basé sur l'incorporation de l'(^3H) Hypoxanthine par le parasite, est utilisé pour tester l'activité anti-métabolique de tels composés sur Babesia Bovis, Babesia Canis. Une relation étroite est trouvée entre le taux d'incorporation de (^3H) Hypoxanthine dans une mesure standard et le pourcentage de cellules parasitées, déterminé par examen microscopique. Cette activité métabolique est quantifiée et évaluée dans le tableau ci-dessous par la cotation +++ pour les molécules affichant dans le test une inhibition de 50 % de l'incorporation de (^3H) Hypoxanthine (ID 50), ces molécules étant à une concentration inférieure ou égale à 0,01 Micromolaire. La cotation est de ++ pour la même activité à une concentration de 0,01 à 0.1 micromolaire et enfin de + pour une concentration inférieure ou égale à 1 Micromolaire.

[3] = tested on: Plasmodium vinckei, petteri, ou chabaudi; experiment: Therapeutic index in infected mice: 4-day Peters test activity versus semi-chronic toxicity (DL 50); type: in vivo, souris Swiss mâles; settings: ratio of activity to toxicity under identical conditions, intraperitoneal or subcutaneous, twice a day for 4 days
Text: Afin d'évaluer l'index thérapeutique des divers produits, on a mesuré l'activité de ceux-ci dans un test in vivo et comparé à la toxicité aiguë chez l'animal . Cette activité est mesurée suivant le test décrit par PETERS W. ( Chemotherapy and Drug résistance in Malaria, 1970). Un composé est administré pendant quatre jours consécutifs à des souris préalablement impaludées par Plasmodium vinckei, petteri, ou chabaudi, ledit composé étant dissous dans une solution de NaCI à 0.9 %. Les préparations sont ainsi administrées par voie intrapéritonéale ou par voie sous-cutanée à des souris Swiss mâles infectées par voie IV, avec Plasmodium petterei ou Plasmodium chabaudi (10^6 cellules infectées ). Le composé est administré deux fois par jour pendant 4 jours consécutifs, la première injection étant pratiquée 2 heures après l'infestation et la deuxième, 10 heures après. La parasitémie est déterminée par un frottis, le jour suivant la fin du traitement. La toxicité est mesurée in vivo selon la même méthode, les animaux ayant reçu dans les conditions d'administration ci-dessus, 2 injections par jour pendant 4 jours ( toxicité semi chronique). Les résultats sont exprimés sous forme de DL 50, soit la dose ayant entraîné la mort de 50% des animaux.
Les résultats des essais sont résumés dans le tableau I ci-après sous forme d'index thérapeutique, soit le rapport de l'activité à la toxicité mésurées dans des conditions identiques comme décrit ci-dessus.

[4] = class of ID 50 for (3H) hypoxanthine incorporation
[5] = Plasmodium falciparum, Erythrocyte, concentration inhibiting in vitro parasite growth by 50 %, human erythrocytes infected with Plasmodium falciparum, 24 h contact, test lasts 60 to 70 h
[6] = Plasmodium falciparum, Erythrocyte
[7] = concentration inhibiting in vitro parasite growth by 50 %, human erythrocytes infected with Plasmodium falciparum, 24 h contact, test lasts 60 to 70 h

SMILES | IC50 [2, 4] [nM] | IC50 [1, 5] [nM] | also measured
C[N+]1(CCCCCCCCCCCCCCCC[N+]2(C)CCCC2)CCCC1 [EXEMPLE 17, 1,1-(1,16-hexadecanediyl) bis (1-methylpyrrolidinium) dibromure] | < 10 |  | IC50 ([1]; Erythrocyte, concentration inhibiting in vitro parasite growth by 50 %, human erythrocytes infected with Plasmodium falciparum, 24 h contact, test lasts 60 to 70 h): 0.6 nM
C[N+]1(CCCCCCCCCCCCCCCC[N+]2(C)CCOCC2)CCOCC1 [EXEMPLE 21, 1,1'-(1.16-hexadecanediyl) bis (1-methylmorpholinium) dibromure] | < 10 | 1 | 
C#CC[N+](C)(C)CCCCCCCCCCCCCC[N+](C)(C)CC#C [EXEMPLE 24, N,N'-di (2-propynyl)-N,N,N',N'-tetramethyl-1,14-tetradecane diaminium dibromure] | 10 to 100 | 7 | 
CCC[N+](C)(CC)CCCCCCCCCCCCCCCCC[N+](C)(CC)CCC (stereo not drawn) [EXEMPLE 4, N,N'-dimethyl-N, N'-diethyl-N, N'-dipropyl-1, 17-heptadecanediaminium, dibromure] | 10 to 100 | 2 | 
C#CCC[N+](C)(C)CCCCCCCCCCCCCC[N+](C)(C)CCC#C [EXEMPLE 26, N,N'-di (3-butynyl)-N, N, N', N'-tetramethyl 1,14-tetradecanediaminium dibromure] |  |  | IC50 [1, 6]: 40 nM; Index thérapeutique [3]: 45; IC50 [2]: 10 to 100 nM
CCC[N+](CCC)(CCO)CCCCCCCCCCCCCC[N+](CCC)(CCC)CCO [EXEMPLE 27, N, N'-di-(2-hydroxyethyl) -N, N, N', N'-tetrapropyl-1, 14 tetradecane diaminium dibromure] | 10 to 100 | 10 | 
CCC[N+](C)(CC)CCCCCCCCCCCCCCCCCCCCCC[N+](C)(CC)CCC (stereo not drawn) [EXEMPLE 7, N,N'-dimethyl-N, N'-diethyl-N, N'-dipropyl-1,22-Cosanediaminium, dibromure] | 10 to 100 | 10 | 
C=CC[N+](C)(C)CCCCCCCCCCCCCC[N+](C)(C)CC=C [EXEMPLE 25, N,N'-di (2-propenyl)-N,N,N',N'-tetramethyl-1,14 tetradecane diaminium dibromure] |  |  | IC50 [1, 6]: 5 nM; Index thérapeutique [3]: 15; IC50 [2]: < 10 nM
CCC[N+](C)(CC)CCCCCCCCCCCCCCCCCCCC[N+](C)(CC)CCC (stereo not drawn) [EXEMPLE 6, N, N'-dimethyl-N, N'-diethyl-N, N'-dipropyl-1,20-eicosanediaminium, dibromure] | 10 to 100 | 3 | 
CC[N+](C)(CC)CCCCCCCCCCCCCCCCCCCCC[N+](C)(CC)CC [EXEMPLE 15, N,N'-dimethyl-N,N,N',N'-tetraethyl-1,21-heneicosanediaminium, dibromure] | < 10 | 0.003 | 
C[N+]1(CCCCCCCCCCCCCC[N+]2(C)CCCC2)CCCC1 [EXEMPLE 16, 1,1'-(1,14-tetradecanediyl) bis (1-methylpyrrolidinium) dibromure] |  |  | IC50 [1, 6]: 0.9 nM; Index thérapeutique [3]: 8; IC50 [2]: < 10 nM
CCCCCCCCCCCC[N+](C)(C)CCCCCCCCCCCCCCCCCC[N+](C)(C)CCCCCCCCCCCC [EXEMPLE 23] | 100 to 1000 | 100 | 
CCC[N+](C)(CC)CCCCCCCCCCCCCCC[N+](C)(CC)CCC (stereo not drawn) [EXEMPLE 2, N,N'-dimethyl-N, N'-diethyl-N, N'-dipropyl-1, 15-pentadecanediaminium, dibromure] | 100 to 1000 | 10 | 
CCC[N+](CCC)(CCO)CCCCCCCCCCCCCCCCCCCC[N+](CCC)(CCC)CCO [EXEMPLE 30, N, N'-di-(2-hydroxyethyl)-N, N, N', N'-tetrapropyl-1,20-eicosanediaminium dibromure] | < 10 | 0.3 | 
C[N+]1(CCCCCCCCCCCCCCCCCCCCCC[N+]2(C)CCCC2CO)CCCC1CO (stereo not drawn) [EXEMPLE 19, 1,1'-(1,22-docosanediyl) bis (2-hydroxymethyl1-methylpyrrolidinium) dibromure] | 100 to 1000 | 70 | 
CCC[N+](CCC)(CCC)CCCCCCCCCCCCCC[N+](CCC)(CCC)CCC [EXEMPLE 8, N, N, N, N', N', N' hexapropyl-1, 14-tetradecanediaminium, dibromure] | 100 to 1000 | 100 | 
CCC[N+](C)(CC)CCCCCCCCCCCCCCCC[N+](C)(CC)CCC (stereo not drawn) [EXEMPLE 3, N.N'-dimethyl-N.N'-diethyl-N, N'-dipropyl-1,16-exadecanediaminium, dibromure] | 10 to 100 | 3 | 
CCC[N+](CCC)(CCCCCCCCCCCCCC[N+](CCC)(CCC)CCOCC)CCOCC [EXEMPLE 28, N, N'-di-(2-ethoxyethyl)-N, N, N', N'-tetrapropyl-1, 14 tetradecanediaminium dibromure] | < 10 | 10 | 
CCC[N+](C)(CC)CCCCCCCCCCCCCCCCCC[N+](C)(CC)CCC (stereo not drawn) [EXEMPLE 5, N,N'-dimethyl-N,N'-diethyl-N,N'-dipropyl-1,18-octadecanediaminium, dibromure] | < 10 | 1 | 
CCC[N+](CCC)(CCC)CCCCCCCCCCCCCCCC[N+](CCC)(CCC)CCC [EXEMPLE 12, N, N, N, N', N', N' hexapropyl-1,16-hexadecanediaminium, dibromure] | 10 to 100 |  | IC50 [1, 7]: 1 nM
CCC[N+](CCC)(CCC)CCCCCCCCCCCCCCCCCCCC[N+](CCC)(CCC)CCC [EXEMPLE 10, N, N, N, N', N', N' hexapropyl-1,20-eicosanediaminium, dibromure] | 100 to 1000 | 700 | 
CCC[N+](C)(CC)CCCCCCCCCCCCCC[N+](C)(CC)CCC (stereo not drawn) [EXEMPLE1, N, N'-dimethyl-N, N'-diethyl-N, N'-dipropyl-1, 14 tetradecanediaminium, dibromure] | 10 to 100 | 10 | 
CCC[N+](CCC)(CCO)CCCCCCCCCCCCCCCC[N+](CCC)(CCC)CCO [EXEMPLE 29, N, N'-di-(2-hydroxyethyl) -N, N, N', N'-tetrapropyl-1, 1 6 hexadecane diaminium dibromure] | 10 to 100 | 5 | 
CCCCCCCCCCCC[N+](C)(C)CCCCCCCCCCCCCCCC[N+](C)(C)CCCCCCCCCCCC [EXEMPLE 22, N,N'-didodecyl-N,N,N',N'-tetramethyl- 1,16 hexadecanediaminium dibromure] | 10 to 100 | 1000 | 
CC[N+](C)(CC)CCCCCCCCCCCCCCCC[N+](C)(CC)CC [EXEMPLE 13, N,N'-dimethyl-N,N,N',N'-tetraethyl-1,16-hexadecanediaminium, dibromure] | < 10 | 0.5 | 
CC[N+](C)(CC)CCCCCCCCCCCCCCCCCC[N+](C)(CC)CC [EXEMPLE 14, N,N'-dimethyl-N,N,N',N'-tetraethyl-1,18 octadecanediaminium, dibromure] |  |  | IC50 [1, 6]: 0.04 nM; Index thérapeutique [3]: 14; IC50 [2]: < 10 nM
CCC[N+](CCC)(CCC)CCCCCCCCCCCCCCCCCCCCCCCC[N+](CCC)(CCC)CCC [EXEMPLE 11, N, N, N, N', N', N' hexapropyl-1,24-tetracosanediaminium, dibromure] | 100 to 1000 | 1600 | 
CCC[N+](CCC)(CCC)CCCCCCCCCCCCCCCC[N+](CCC)(CCC)CCC [EXEMPLE 9, N, N, N, N', N', N' hexapropyl-1, 16-hexadecanediaminium, dibromure] | < 10 |  | IC50 [1, 7]: 7 nM
